Test results from patent US20240208992A1, “MACROCYCLES AS CFTR MODULATORS” (Idorsia Pharmaceuticals Ltd, priority 2021, published 2024).

Biological target: human F508del-CFTR (Homo sapiens, UniProt P13569, DEL508-508)
Assay: F508del-CFTR cell surface expression (corrector activity), DiscoveRx ß-galactosidase complementation chemiluminescence assay in recombinant U2OS cell line;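 note: U2OS cells co-expressing ProLink-tagged F508del-CFTR and a membrane-anchored enzyme acceptor, where more surface CFTR restores β-galactosidase activity measured by chemiluminescence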
Conditions: for EC50: EC50, F508del-CFTR cell surface expression; for Emax: U2OS
[1] = U2OS cells, 16h compound incubation, geomean of several measurements
[2] = in relation to the Emax of the corrector lumacaftor (=100%), U2OS cells, 16h compound incubation, arithmetic mean
[3] = U2OS cell line, 16h compound incubation, geomean values
[4] = in relation to the Emax of the corrector lumacaftor (=100%), U2OS cell line, 16h compound incubation, arithmetic mean values
[5] = U2OS cells, 16h compound incubation, geomean values
[6] = in relation to Emax of corrector lumacaftor (=100%), arithmetic mean values

Chain of human F508del-CFTR (P13569 with tags, fused parts or gaps DEL508-508): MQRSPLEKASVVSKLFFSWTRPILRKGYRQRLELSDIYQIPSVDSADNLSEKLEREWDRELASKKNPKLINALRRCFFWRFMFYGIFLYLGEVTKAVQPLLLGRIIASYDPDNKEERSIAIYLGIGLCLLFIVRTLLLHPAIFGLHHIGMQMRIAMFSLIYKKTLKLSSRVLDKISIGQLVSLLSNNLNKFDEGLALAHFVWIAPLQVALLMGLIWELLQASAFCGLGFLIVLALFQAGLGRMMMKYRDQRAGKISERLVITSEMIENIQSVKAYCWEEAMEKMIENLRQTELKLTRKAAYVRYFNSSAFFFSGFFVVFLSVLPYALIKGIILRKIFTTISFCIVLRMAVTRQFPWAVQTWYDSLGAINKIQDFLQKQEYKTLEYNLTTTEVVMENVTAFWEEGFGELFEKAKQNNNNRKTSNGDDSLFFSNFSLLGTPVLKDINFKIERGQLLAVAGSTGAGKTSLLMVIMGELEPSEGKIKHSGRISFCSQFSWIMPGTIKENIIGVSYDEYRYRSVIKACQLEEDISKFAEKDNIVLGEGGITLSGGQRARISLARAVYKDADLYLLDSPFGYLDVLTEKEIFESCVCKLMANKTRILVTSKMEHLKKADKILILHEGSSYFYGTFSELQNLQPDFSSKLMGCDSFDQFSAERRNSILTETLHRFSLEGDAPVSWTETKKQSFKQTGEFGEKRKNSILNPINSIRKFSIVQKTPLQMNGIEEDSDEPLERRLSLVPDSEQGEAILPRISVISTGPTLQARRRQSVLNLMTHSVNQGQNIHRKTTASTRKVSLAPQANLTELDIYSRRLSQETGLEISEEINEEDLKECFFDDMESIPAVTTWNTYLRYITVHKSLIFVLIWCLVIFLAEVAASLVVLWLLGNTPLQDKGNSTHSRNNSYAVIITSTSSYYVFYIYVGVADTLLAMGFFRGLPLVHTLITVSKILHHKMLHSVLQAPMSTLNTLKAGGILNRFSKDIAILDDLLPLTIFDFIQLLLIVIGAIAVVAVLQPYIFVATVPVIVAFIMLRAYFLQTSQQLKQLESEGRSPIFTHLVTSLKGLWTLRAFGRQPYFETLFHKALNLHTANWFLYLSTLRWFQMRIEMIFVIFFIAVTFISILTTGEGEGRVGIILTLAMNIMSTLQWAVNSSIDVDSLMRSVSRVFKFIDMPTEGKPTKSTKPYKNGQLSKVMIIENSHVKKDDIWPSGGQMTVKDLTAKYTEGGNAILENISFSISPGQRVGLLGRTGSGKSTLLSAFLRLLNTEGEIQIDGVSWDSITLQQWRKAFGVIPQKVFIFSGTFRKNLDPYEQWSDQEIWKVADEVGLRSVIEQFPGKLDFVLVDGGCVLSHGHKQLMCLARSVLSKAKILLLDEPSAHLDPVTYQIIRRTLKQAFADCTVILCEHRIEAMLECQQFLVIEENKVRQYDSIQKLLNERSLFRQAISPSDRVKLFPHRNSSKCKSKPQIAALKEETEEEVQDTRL

SMILES: COc1nccc2c1C(=O)N[C@H](C(=O)NCCc1noc(C3CC3)n1)CC(=O)N(C)[C@@H](CC(C)C)C(=O)N(C)[C@H](Cn1cc(-c3ccccc3)nn1)C(=O)N[C@H](Cc1ccccc1)CO2 [Example 882, (3R,6R,9S,13S)-3-benzyl-N-(2-(5-cyclopropyl-1,2,4-oxadiazol-3-yl)ethyl)-9-isobutyl-16-methoxy-7,10-dimethyl-5,8,11,15-tetraoxo-6-((4-phenyl-1H-1,2,3-triazol-1-yl)methyl)-2,3,4,5,6,7,8,9,10,11,12,13,14,15-tetradecahydropyrido[3,4-p][1]oxa[4,7,10,14]tetraazacycloheptadecine-13-carboxamide]
- EC50 [1]: 473 nM
- Emax [2]: 367%

SMILES: COc1cc(CCNC(=O)[C@@H]2CC(=O)N(C)[C@@H](CC(C)C)C(=O)N(C)[C@@H](Cc3nc(-c4ccc(F)cn4)no3)C(=O)N[C@H](Cc3ccccc3)COc3cnc4ccc(F)cc4c3C(=O)N2)on1 [Example 816, (3S,7S,10S,13R)-13-benzyl-20-fluoro-10-((3-(5-fluoropyridin-2-yl)-1,2,4-oxadiazol-5-yl)methyl)-7-isobutyl-N-(2-(3-methoxyisoxazol-5-yl)ethyl)-6,9-dimethyl-1,5,8,11-tetraoxo-1,2,3,4,5,6,7,8,9,10,11,12,13,14-tetradecahydro-[1]oxa[4,7,10,14]tetraazacycloheptadecino[17,16-c]quinoline-3-carboxamide]
- EC50 [1]: 741 nM
- Emax [2]: 286%

SMILES: CC(C)C[C@H]1C(=O)N2CCOC[C@@H]2C(=O)N[C@H](Cc2ccccc2)COc2ccc3ccccc3c2C(=O)N[C@H](C(=O)NCCc2ccc3c(c2)OCO3)CC(=O)N1C [Example 326, (4aR,7R,18S,22S)-N-(2-(benzo[d][1,3]dioxol-5-yl)ethyl)-7-benzyl-22-isobutyl-21-methyl-5,16,20,23-tetraoxo-1,2,4,4a,5,6,7,8,16,17,18,19,20,21,22,23-hexadecahydronaphtho[1,2-p][1,4]oxazino[3,4-f][1]oxa[4,7,10,14]tetraazacycloheptadecine-18-carboxamide]
- EC50 [3]: 276 nM
- Emax [4]: 273%

SMILES: CC(C)C[C@H]1C(=O)N2CCOC[C@@H]2C(=O)N[C@H](Cc2ccccc2)COc2ccc3ccccc3c2C(=O)N[C@H](C(=O)NCCc2cccc(OC(F)F)c2)CC(=O)N1C [Example 371, (4aR,7R,18S,22S)-7-benzyl-N-(3-(difluoromethoxy)phenethyl)-22-isobutyl-21-methyl-5,16,20,23-tetraoxo-1,2,4,4a,5,6,7,8,16,17,18,19,20,21,22,23-hexadecahydronaphtho[1,2-p][1,4]oxazino[3,4-f][1]oxa[4,7,10,14]tetraazacycloheptadecine-18-carboxamide]
- EC50 [3]: 226 nM
- Emax [4]: 180%

SMILES: COc1cccc2c1OC[C@@H](NC(=O)[C@@H]1CC(=O)N(C)[C@@H](CC(C)C)C(=O)N3CCOC[C@@H]3C(=O)N[C@H](Cc3ccccc3)COc3ccc4ccccc4c3C(=O)N1)C2 [Example 32, (4aR,7R,18S,22S)-7-benzyl-22-isobutyl-N-(-8-methoxychroman-3-yl)-21-methyl-5,16,20,23-tetraoxo-1,2,4,4a,5,6,7,8,16,17,18,19,20,21,22,23-hexadecahydronaphtho[1,2-p][1,4]oxazino[3,4-f][1]oxa[4,7,10,14]tetraazacycloheptadecine-18-carboxamide]
- EC50 [3]: 318 nM
- Emax [4]: 146%

SMILES: Cc1cc(CCNC(=O)[C@@H]2CC(=O)N(C)[C@@H](CC(C)C)C(=O)N(C)[C@H](CC3CCCCC3)C(=O)N[C@H](Cc3ccccc3)COc3cnc4ccccc4c3C(=O)N2)on1 [Example 709, (3S,7S,10R,13R)-13-benzyl-10-(cyclohexylmethyl)-7-isobutyl-6,9-dimethyl-N-(2-(3-methylisoxazol-5-yl)ethyl)-1,5,8,11-tetraoxo-1,2,3,4,5,6,7,8,9,10,11,12,13,14-tetradecahydro-[1]oxa[4,7,10,14]tetraazacycloheptadecino[17,16-c]quinoline-3-carboxamide]
- EC50 [5]: 47 nM
- Emax [6]: 284%

SMILES: COc1nc(C)cc2c1C(=O)N[C@H](C(=O)NCCc1nc(C3CC3)no1)CC(=O)N(C)[C@@H](CC(C)C)C(=O)N1CCCC[C@@H]1C(=O)N[C@H](Cc1ccccc1)CO2 [Example 656, (7S,11S,17aR,20R)-20-benzyl-N-(2-(3-cyclopropyl-1,2,4-oxadiazol-5-yl)ethyl)-11-isobutyl-4-methoxy-2,10-dimethyl-5,9,12,18-tetraoxo-5,6,7,8,9,10,11,12,15,16,17,17a,18,19,20,21-hexadecahydro-14H-dipyrido[2,1-f:3′,4′-p][1]oxa[4,7,10,14]tetraazacycloheptadecine-7-carboxamide]
- EC50 [5]: 357 nM
- Emax [6]: 327%

SMILES: Cc1ccc(F)c(CCNC(=O)[C@@H]2CC(=O)N(C)[C@@H](CC(C)C)C(=O)N3CCCC[C@@H]3C(=O)N[C@H](Cc3ccccc3)COc3cnc4ccccc4c3C(=O)N2)c1 [Example 92, (9S,13S,19aR,22R)-22-benzyl-N-(2-fluoro-5-methylphenethyl)-13-isobutyl-12-methyl-7,11,14,20-tetraoxo-7,8,9,10,11,12,13,14,17,18,19,19a,20,21,22,23-hexadecahydro-16H-pyrido[2′,1′:6,7][1]oxa[4,7,10,14]tetraazacycloheptadecino[17,16-c]quinoline-9-carboxamide]
- EC50 [3]: 289 nM
- Emax [4]: 256%

SMILES: CN1C(=O)C[C@@H](C(=O)NCCc2ccc3c(c2)OCO3)NC(=O)c2c(ccc3ccccc23)OC[C@@H](Cc2ccccc2)NC(=O)CN(CCC2CCCCC2)C(=O)[C@@H]1CC1CCC1 (racemic) [Example 292, (3RS,7S,13R)-N-(2-(benzo[d][1,3]dioxol-5-yl)ethyl)-13-benzyl-7-(cyclobutylmethyl)-9-(2-cyclohexylethyl)-6-methyl-1,5,8,11-tetraoxo-1,2,3,4,5,6,7,8,9,10,11,12,13,14-tetradecahydronaphtho[1,2-p][1]oxa[4,7,10,14]tetraazacycloheptadecine-3-carboxamide]
- Emax [4]: 191%

SMILES: COc1cccc(CCNC(=O)[C@@H]2CC(=O)N(C)[C@@H](CC(C)C)C(=O)N3CCCC[C@@H]3C(=O)N[C@H](Cc3ccccc3)COc3ccc4nc(C)oc4c3C(=O)N2)c1 [Example 614, (8S,12S,18aR,21R)-21-benzyl-12-isobutyl-N-(3-methoxyphenethyl)-4,11-dimethyl-6,10,13,19-tetraoxo-6,7,8,9,10,11,12,13,16,17,18,18a,19,20,21,22-hexadecahydro-15H-oxazolo[4′,5′:5,6]benzo[1,2-p]pyrido[2,1-f][1]oxa[4,7,10,14]tetraazacycloheptadecine-8-carboxamide]
- EC50 [5]: 484 nM
- Emax [6]: 317%

SMILES: COc1cc(CCNC(=O)[C@@H]2CC(=O)N(C)[C@@H](CC(C)C)C(=O)N3CCCC[C@@H]3C(=O)N[C@H](Cc3ccccc3)COc3cnc4ccccc4c3C(=O)N2)cc(OC)c1 [Example 71, (9S,13S,19aR,22R)-22-benzyl-N-(3,5-dimethoxyphenethyl)-13-isobutyl-12-methyl-7,11,14,20-tetraoxo-7,8,9,10,11,12,13,14,17,18,19,19a,20,21,22,23-hexadecahydro-16H-pyrido[2′,11:6,7][1]oxa[4,7,10,14]tetraazacycloheptadecino[17,16-c]quinoline-9-carboxamide]
- EC50 [3]: 338 nM
- Emax [4]: 326%

SMILES: COc1nccc2c1C(=O)N[C@H](C(=O)NCCc1cc(C)no1)CC(=O)N(C)[C@@H](CC(C)C)C(=O)N1CCN(CC(C)C)C[C@@H]1C(=O)N[C@H](Cc1ccccc1)CO2 [Example 570, (7S,11S,20R,22aR)-20-benzyl-2,7-diisobutyl-14-methoxy-8-methyl-N-(2-(3-methylisoxazol-5-yl)ethyl)-6,9,13,22-tetraoxo-1,3,4,6,7,8,9,10,11,12,13,19,20,21,22,22a-hexadecahydro-2H-pyrazino[2,1-f]pyrido[3,4-p][1]oxa[4,7,10,14]tetraazacycloheptadecine-11-carboxamide]
- EC50 [5]: 374 nM
- Emax [6]: 323%

SMILES: COc1cc2c(cc1OC)C(=O)N[C@H](C(=O)NCCc1ccc3c(c1)OCCC3)CC(=O)N(C)[C@@H](CC(C)C)C(=O)N(C)CC(=O)N[C@H](Cc1ccccc1)CO2 [Example 148, (3R,9S,13S)-3-benzyl-N-(2-(chroman-7-yl)ethyl)-9-isobutyl-17,18-dimethoxy-7,10-dimethyl-5,8,11,15-tetraoxo-2,3,4,5,6,7,8,9,10,11,12,13,14,15-tetradecahydrobenzo[p][1]oxa[4,7,10,14]tetraazacycloheptadecine-13-carboxamide]
- EC50 [3]: 811 nM
- Emax [4]: 198%

SMILES: COc1nccc2c1C(=O)N[C@H](C(=O)NCCc1noc(C3CC3)n1)CC(=O)N(C)[C@@H](CC(C)C)C(=O)N(C)[C@H](CCc1nc(C3CCCC3)no1)C(=O)N[C@H](Cc1ccccc1)CO2 [Example 883, (3R,6R,9S,13S)-3-benzyl-6-(2-(3-cyclopentyl-1,2,4-oxadiazol-5-yl)ethyl)-N-(2-(5-cyclopropyl-1,2,4-oxadiazol-3-yl)ethyl)-9-isobutyl-16-methoxy-7,10-dimethyl-5,8,11,15-tetraoxo-2,3,4,5,6,7,8,9,10,11,12,13,14,15-tetradecahydropyrido[3,4-p][1]oxa[4,7,10,14]tetraazacycloheptadecine-13-carboxamide]
- EC50 [1]: 111 nM
- Emax [2]: 344%

SMILES: CC(C)C[C@H]1C(=O)N2CCOC[C@@H]2C(=O)N[C@H](Cc2ccccc2)COc2ccc3ccccc3c2C(=O)N[C@H](C(=O)NCCc2noc3ccccc23)CC(=O)N1C [Example 38, (4aR,7R,18S,22S)-N-(2-(benzo[d]isoxazol-3-yl)ethyl)-7-benzyl-22-isobutyl-21-methyl-5,16,20,23-tetraoxo-1,2,4,4a,5,6,7,8,16,17,18,19,20,21,22,23-hexadecahydronaphtho[1,2-p][1,4]oxazino[3,4-f][1]oxa[4,7,10,14]tetraazacycloheptadecine-18-carboxamide]
- EC50 [3]: 299 nM
- Emax [4]: 191%
